Results reported in patent US9169260B2 (MERCK SHARP & DOHME CORP., priority 2011, dated 2015).

Biological target: GST tagged IRAK-4 (Homo sapiens (Human), UniProt Q9NWZ3)
Assay: IRAK-4 Kinase Assay (IMAP fluorescence polarization)
Format: biochemical
Settings: 100 μM ATP, 30 minutes at 25° C.
Outline: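 Activity was read by IMAP fluorescence polarization, where phosphopeptide binding to M(III) nanoparticles raises FP. The 30-minute, 25° C reaction used 100 μM ATP, 100 nM RP7030 substrate and 0.5 nM GST-IRAK-4 in pH 7.2 Tris buffer with MgCl2, DTT and Tween 20.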

GST tagged IRAK-4, sequence (Q9NWZ3 whole entry): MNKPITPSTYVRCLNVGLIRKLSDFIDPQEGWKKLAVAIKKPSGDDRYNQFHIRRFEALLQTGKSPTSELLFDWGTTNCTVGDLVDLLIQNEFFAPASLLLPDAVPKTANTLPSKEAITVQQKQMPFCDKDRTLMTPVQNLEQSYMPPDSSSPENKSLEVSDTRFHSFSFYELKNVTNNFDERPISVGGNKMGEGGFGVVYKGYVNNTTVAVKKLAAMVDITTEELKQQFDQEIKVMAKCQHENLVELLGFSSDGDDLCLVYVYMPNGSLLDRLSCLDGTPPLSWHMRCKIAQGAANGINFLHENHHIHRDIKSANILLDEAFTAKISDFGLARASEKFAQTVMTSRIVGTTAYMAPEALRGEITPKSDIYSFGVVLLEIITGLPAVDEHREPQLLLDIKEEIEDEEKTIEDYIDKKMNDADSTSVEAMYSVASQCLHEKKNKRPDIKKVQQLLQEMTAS

**Q.** With `Cc1ccc(-n2nc(C3CCN(C4CCCOC4)CC3)cc2NC(=O)c2cnn3cc(Br)cnc23)cc1` (stereo not shown) [Example 109, 6-bromo-N-(3-(1-(tetrahydro-2H-pyran-3-yl)piperidin-4-yl)-1-(p-tolyl)-1H-pyrazol-5-yl)pyrazolo[1,5-a]pyrimidine-3-carboxamide] as the compound, how does the IC50 read?
**A.** < 0.1 µM
